# Several values for one entry are separate records, joined by “and”; a condition that tells them apart may be missing. Equal entries are not always repeated. Where two headings read alike, the source gives them in different places.
# How the values were obtained:
# ARE-NLuc::HaCaT [1] = test system: ARE-NLuc::HaCaT
# ARE-NLuc::HaCaT [2] = test system: ARE-NLuc::HaCaT; remark: listed apart in the source
# AhR [3] = assay: XRE reporter assay for AD evaluation (AD cell model); settings: for inhibitory effect in the AD cell model, compared in words: 0.5 μM FICZ, XRE-NLuc::HaCaT, not as strong as linalyl acetate; for inhibitory effect in the AD cell model, compared in words / IC50: 24 h; for IC50: Homo sapiens, read-out: IC50 of inhibition of AD (XRE reporter expression)
# ARE-NLuc::HaCaT [4] = assay: Cell viability (WST-1) in the keratinocyte activation assay; settings: 48 h, mean ± SD of three experiments
# ARE-NLuc::HaCaT [5] = assay: Keratinocyte activation assay (ARE reporter assay, OECD TG442D); settings: 48 h; positive criteria of TG442D
# ARNT [6] = assay: ARNT protein level by western blotting in HaCaT cells; format: cell-based, human; settings: FICZ alone, 24 h
# Excerpt: All the Western blots are shown from two (anti-ARNT) or three (anti-AhR and anti-gamma tubulin) independent experiments. […] The intensities are relative to the vehicle set at 1.
# AhR [7] = assay: AhR mRNA level by qPCR in HaCaT cells; format: cell-based, human; settings: FICZ with or without linalyl acetate or linalool, 24 h
# ARNT [8] = assay: ARNT mRNA level by qPCR in HaCaT cells; format: cell-based, human; settings: FICZ with or without linalyl acetate or linalool, 24 h
# Excerpt: Briefly, the total RNA was extracted, and reverse transcribed using SuperPrep II Cell Lysis & RT Kit for qPCR (#SCQ-401, Toyobo, Tokyo, Japan), according to the manufacturer’s instructions. The cDNA obtained was subjected to a quantitative polymerase chain reaction (qPCR) with THUNDERBIRD Next SYBR qPCR Mix (#QPX-201, Toyobo) according to the manufacturer’s protocol using the StepOne Real-Time PCR System (Thermo Fisher Japan, Tokyo, Japan). The expression of each gene obtained using qPCR was normalized to that of glyceraldehyde-3-phosphate dehydrogenase (GAPDH). […] The cycle threshold (Ct) value of GAPDH in each sample was used as an internal control.
# Total RNA was then extracted and reverse transcribed to cDNA that was subjected to qPCR using the primer set listed in S2 Table in S1 File. AhR and ARNT expression was normalized to GAPDH expression. Fold induction was calculated as the vehicle set at 1. Values in the graphs represent the mean ± SD of two independent experiments. […] All the Western blots are shown from two (anti-ARNT) or three (anti-AhR and anti-gamma tubulin) independent experiments. […] The intensities are relative to the vehicle set at 1.
# Artemin = assay: FICZ-induced Artemin mRNA expression by qPCR in HaCaT cells; format: cell-based; settings: Homo sapiens, 24 h, read-out: IC50 of decrease of FICZ-induced Artemin expression
# CD86 on U937 cells [9] = test system: CD86 on U937 cells; parameters: method as in PMID 23576290; settings: cited from earlier work
# [10] = cited from earlier work
# AhR [11] = assay: AhR protein level by western blotting in HaCaT cells; format: cell-based, human; settings: FICZ and linalyl acetate, 24 h
# Procedure: Sodium dodecyl sulfate–polyacrylamide gel electrophoresis (SDS–PAGE) and western blotting were performed as described previously. Cell lysates were prepared in lysis buffer [10 mM HEPES-KOH, pH 7.4, 100 mM KCl, 1 mM MgCl2, 1% Triton X-100, and protease inhibitor cocktails (Nacalai)]. After incubation for 10 min on ice, the lysate was clarified by centrifugation at 14,000 × g for 10 min. The supernatants were then subjected to SDS–PAGE on a 7.5% gel (Bio-Rad). The gel was electrotransferred to polyvinylidene fluoride or polyvinylidene difluoride membranes (pore size: 0.45 μm, Merck Group Japan, Tokyo, Japan). The proteins on the membrane were detected by incubation with diluted anti-AhR, anti-ARNT (Santa Cruz Biotechnology, Cosmo Bio Co., LTD, Tokyo, Japan), and anti-γ-tubulin (Sigma, Sigma-Aldrich Japan, Tokyo, Japan) followed by HRP-conjugated anti-mouse immunoglobulin G (Cell Signaling, CST Japan, Tokyo, Japan) using a charge-coupled device camera.
# Next, we measured the mRNA and protein expression of AhR and ARNT by qPCR and western blotting, respectively.
# Total RNA was then extracted and reverse transcribed to cDNA that was subjected to qPCR using the primer set listed in S2 Table in S1 File. […] Fold induction was calculated as the vehicle set at 1. […] The right-side numbers are experimental numbers. d) Band intensity of each lane was quantified by ImageJ and normalized to […]. […]
# HaCaT cells = assay: RNAseq on treated HaCaT cells analysed by DisGeNET-Metascape; format: cell-based, human; settings: authors' reply to reviewer, data not shown
# Excerpt: Thank you for your comment. […] To clarify that our conclusion is limited, we have added some words in the revised Discussion section.
# CD86 on U937 cells [12] = settings: for CD86+ FL1 positivity (%): 200 µg/mL, control printed for each of three test series
# U937 cells [13] = settings: human
# [14] = cited from earlier work; remark: listed apart in the source
# [15] = Cell viability (PI staining) in the dendritic cell activation assay; settings: human, U937 cells, %Viability, control printed for each of three test series
# U937 cells [16] = assay: as above; settings: 200 µg/mL, control printed for each of three test series
smiles,measurement,setting,value
"C=CC(C)(O)CCCC(C)C (centres unmarked) [DHL, 6,7-Dihydrolinalool]",outcome of the keratinocyte activation assay,ARE-NLuc::HaCaT [1],weakly positive
same,CV70,ARE-NLuc::HaCaT [2],1319 ± 52.3 µM
same,"inhibitory effect in the AD cell model, compared in words",AhR [3],stronger inhibitory effects than linalool
"C=C(C)C(=O)OCCOC(=O)C(=C)C [Ethylene glycol dimethacrylate, ethylene glycol dimethacrylate, reference compound]",CV70,ARE-NLuc::HaCaT [4],523 ± 59.0 µM
same,CV70,ARE-NLuc::HaCaT [4]; listed as EGDMA,523 ± 59.0 µM
same,outcome of the keratinocyte activation assay,ARE-NLuc::HaCaT [5],positive
"O=Cc1c2[nH]c3ccccc3c2cc2[nH]c3ccccc3c12 [FICZ, 6-formylindolo[3,2-b]carbazole]",ARNT protein level,ARNT [6],increased
same,AhR mRNA level,AhR [7],did not change
same,ARNT mRNA level,ARNT [8],did not change
C=CC(C)(O)CCC=C(C)C (centres unmarked) [Linalool],IC50,"Artemin; 5 μM FICZ, qPCR normalized to GAPDH",194 µM
same,AhR mRNA level,AhR [7],did not change
same,outcome of the dendritic cell activation assay,CD86 on U937 cells [9],positive
same,Patch test (human),[10],"0.2% positive ^##, ^###"
same,IC50,AhR [3],> 1000 µM
same,CV70,ARE-NLuc::HaCaT [4],>2000 µM
same,outcome of the keratinocyte activation assay,ARE-NLuc::HaCaT [5],negative
C=CC(C)(CCC=C(C)C)OC(C)=O (centres unmarked) [Linalyl acetate],IC50,Artemin,3.6 µM
same,reduction of AhR protein level compared with FICZ alone,AhR [11],approximately 30%
same,AhR mRNA level,AhR [7],did not change
same,evidence of contact allergy in RNAseq,HaCaT cells,no evidence of contact allergy
same,S.I. value of CD86,CD86 on U937 cells [12],less than 150
same,outcome of the dendritic cell activation assay,CD86 on U937 cells [12],negative
same,CV70,U937 cells [13],16 ± 3.8 µg/mL
same,"Key event 4, Local lymph node assay",[14],weak positivity
same,patch test,[10],negativity
same,IC50,AhR [3],519 µM
same,XRE reporter expression,AhR [3]; without activation of AhR by FICZ,decreased XRE reporter expression
same,CV70,ARE-NLuc::HaCaT [4],1466 ± 45.4 µM
same,outcome of the keratinocyte activation assay,ARE-NLuc::HaCaT [5],weakly positive
"CCC(C)(O)CCCC(C)C (centres unmarked) [THL, tetrahydrolinalool]",outcome of the keratinocyte activation assay,ARE-NLuc::HaCaT [1],weakly positive
same,CV70,ARE-NLuc::HaCaT [2],1416 ± 90.6 µM
same,"inhibitory effect in the AD cell model, compared in words",AhR [3],stronger inhibitory effects than linalool
CC(O)C(=O)O (centres unmarked) [lactic acid],CD86+ FL1 positivity (%),"CD86 on U937 cells [12]; Experiment 1, 48 h",11.5% and 10.1%
same,CD86+ FL1 positivity (%),"CD86 on U937 cells [12]; Experiment 2, 48 h",8.4% and 12.6% and 11.7%
same,"viability at 48 h, 200 µg/mL","[15]; Experiment 1, 48 h",97.4%
same,"viability at 48 h, 200 µg/mL","[15]; Experiment 2, 48 h",96.4%
same,%Viability,"U937 cells [16]; Experiment 1, 48 h",96.2%
same,%Viability,"U937 cells [16]; Experiment 2, 48 h",95.4% and 94.4%
